Results from PMC9574513 (The Journal of Biological Chemistry, 2022).
Substitutions are numbered along the chain they refer to.

Experiments:
PtKCS4 = target: T1, PtKCS4 (Populus trichocarpa, UniProt U7E0F5); type: cell-based; settings: inhibition; 30 °C, 4 days, yeast culture
T1 sequence (U7E0F5 1-524): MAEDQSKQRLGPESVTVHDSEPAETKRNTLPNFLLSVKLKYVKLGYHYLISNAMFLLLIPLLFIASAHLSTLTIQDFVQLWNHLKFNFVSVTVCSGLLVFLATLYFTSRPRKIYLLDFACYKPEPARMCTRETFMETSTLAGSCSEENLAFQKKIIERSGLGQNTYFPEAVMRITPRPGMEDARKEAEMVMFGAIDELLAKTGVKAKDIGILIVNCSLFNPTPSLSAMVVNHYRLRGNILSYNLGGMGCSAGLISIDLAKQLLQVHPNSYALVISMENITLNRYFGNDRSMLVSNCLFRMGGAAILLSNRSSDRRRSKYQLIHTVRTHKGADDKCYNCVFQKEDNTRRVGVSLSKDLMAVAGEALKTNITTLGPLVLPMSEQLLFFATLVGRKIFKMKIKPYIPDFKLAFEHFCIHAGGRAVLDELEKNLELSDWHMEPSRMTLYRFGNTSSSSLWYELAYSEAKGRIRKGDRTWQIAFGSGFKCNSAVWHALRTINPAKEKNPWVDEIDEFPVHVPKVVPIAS

PtKCS2 = target: T2, PtKCS2 (Populus trichocarpa, UniProt A0A2K1YQQ5); type: cell-based; settings: inhibition; 30 °C, 4 days, yeast culture
T2 sequence (A0A2K1YQQ5 1-524): T1 sequence (U7E0F5 1-524) with C94S, T137K, T139V, C144F, R283C

## CCc1cccc(CC)c1N(COC)C(=O)CCl [alachlor]
PtKCS4
  proportion of total VLC-FAMEs vs uninhibited control at 2 μM: whereas alachlor and anilofos slightly reduced activity
PtKCS2
  proportion of total VLC-FAMEs vs uninhibited control at 2 μM: whereas alachlor and anilofos slightly reduced activity

## CC(C)N(C(=O)COc1nnc(C(F)(F)F)s1)c1ccc(F)cc1 [flufenacet]
PtKCS4
  proportion of total VLC-FAMEs vs uninhibited control at 2 μM: Flufenacet and fentrazamide had the greatest effect on reducing VLCFA elongation in all three KCSs
PtKCS2
  proportion of total VLC-FAMEs vs uninhibited control at 2 μM: Flufenacet and fentrazamide had the greatest effect on reducing VLCFA elongation in all three KCSs
